We go through 16 compounds from patent publication US20020049205A1, “Pyrazole antimicrobial agents” (priority 2000, published 2002).

Structures are written as SMILES.

Test [1] has as its target T1, Sigma^70 saturated E. coli RNA Polymerase (Escherichia coli, UniProt P0A7Z4+P0A800+P0A8T7+P0A8V2).
T1 construct: purchased Epicenter
Nature of the test: IC50 assay, inhibition of RNA polymerase. It counts as biochemical. Here is the method:
One common assay involves evaluation of the compounds as RNA polymerase inhibitors. In this assay, buffer (250 mM KCl, 5% glycerol, 10 mM MgCl2, 0.1 mg/ml BSA) is combined with 6 mM β-M.E., PT5 DNA template, and 1.3 μg/rxn Sigma^70 saturated E. coli RNA Polymerase (Epicenter). The compound is then added in a manner not to exceed 5% DMSO. Nucleotide triphosphates are then added at the following concentration: 250 μM ATP, CTP and UTP with 100 μM cold CTP and 50 μM α-^32P CTP. The mixture is incubated for 10 min at about 37° C. A [2×] loading buffer is added and the mixture is then run on a 6% urea denaturing PAGE until bromophenol blue reaches the edge of plate. The gel is soaked (about 20 minutes in 10% MeOH and 10% acetic acid, to remove urea), then dried (about 55 minutes at about 85° C. (BioRad Gel Drier)) and exposed to a Phospho Imaging Plate for 1 hour. The plate is then read on a Fujix Bas1000 Imaging System and quantified using MacBas v2.0 software. An IC50 (in μM) can be calculated as the concentration of a drug which reduces the enzyme activity to 50% of the control.
In this assay, buffer (250 mM KCl, 5% Glycerol, 10 mM MgCl2, 0.1 mg/ml bovine serum albumin (BSA)) is combined with 6 mM β-mercaptoethanol, PT5 DNA template, and 1.3 μg/rxn Sigma^70 saturated E. coli RNA Polymerase (obtained from Epicenter). The compound is then added in a manner not to exceed 5% DMSO. Nucleotide triphosphates are then added at the following concentration: 250 μM ATP, CTP and UTP with 100 μM cold CTP and 50 μM α-32P CTP. The mixture is incubated for 10 min at about 37° C. A [2×] loading buffer is added and the mixture is then run on a 6% urea denaturing PAGE until bromophenol blue reaches the edge of plate. The gel is soaked (about 20 minutes in 10% MeOH and 10% acetic acid, to remove urea), then dried (about 55 minutes at about 85° C. (BioRad Gel Drier)) and exposed to a Phospho Imaging Plate for 1 hour. The plate is then read on a Fujix Bas1000 Imaging System and quantified using MacBas v2.0 software. An IC50 (in μM) can be calculated as the concentration of a compound of the invention that reduces the enzyme activity to 50% of the control. For the sake of clarity, the above-described assay is used to determine the IC50 values referenced in the claims. However, the skilled artisan will recognize that other methods can be used to determine an IC50 value.

A further test deals with E.c(tolC). The test is described as follows: Minimum Inhibitory Concentration assay, E.c(tolC). The settings on record: 16 h, read-out: MIC (μM) E.c(tolC). The class given is cell-based. Here is the method:
(§1) For Minimum Inhibitory Concentration (MIC) determinations for selected bacteria, log phase growing bacteria are re-suspended at 1×10^5 bacteria per mL in LB medium. The compound is added and two-fold dilutions are made. The final volume in the 96-well plate is about 100 μL. The plate is incubated at 37° C. in the dark with shaking. After 16 hours of incubation, growth is monitored by reading A600 or by visual inspection. MIC is defined as the minimum concentration of drug resulting in inhibition of visible growth of bacterial under the conditions described (above) in National Committee for Clinical Laboratory Standards 1993. Methods for dilution antimicrobial susceptibility tests for bacteria that grow aerobically. Approved standard M7-A3; National Committee for Clinical Laboratory Standards: Villanova, Pa.
as §1, with “MIC” for “Minimum Inhibitory Concentration (MIC)”

The next test has as its system S. au. The test is described as follows: Minimum Inhibitory Concentration assay, S. au. The class given is cell-based. The settings on record: LB medium, 16 hours, 37° C. Here is the method: as §1
as §1, with “MIC” for “Minimum Inhibitory Concentration (MIC)”

A further test relates to B. su. Nature of the test: Minimum Inhibitory Concentration assay, B. su. It counts as cell-based. The settings on record: LB medium, 16 hours, 37° C. Here is the method:
as §1
as §1, with “MIC” for “Minimum Inhibitory Concentration (MIC)”

[2] abbreviates: Table 1, compounds of Formula 1.

T1 sequence (P0A8V2 whole entry): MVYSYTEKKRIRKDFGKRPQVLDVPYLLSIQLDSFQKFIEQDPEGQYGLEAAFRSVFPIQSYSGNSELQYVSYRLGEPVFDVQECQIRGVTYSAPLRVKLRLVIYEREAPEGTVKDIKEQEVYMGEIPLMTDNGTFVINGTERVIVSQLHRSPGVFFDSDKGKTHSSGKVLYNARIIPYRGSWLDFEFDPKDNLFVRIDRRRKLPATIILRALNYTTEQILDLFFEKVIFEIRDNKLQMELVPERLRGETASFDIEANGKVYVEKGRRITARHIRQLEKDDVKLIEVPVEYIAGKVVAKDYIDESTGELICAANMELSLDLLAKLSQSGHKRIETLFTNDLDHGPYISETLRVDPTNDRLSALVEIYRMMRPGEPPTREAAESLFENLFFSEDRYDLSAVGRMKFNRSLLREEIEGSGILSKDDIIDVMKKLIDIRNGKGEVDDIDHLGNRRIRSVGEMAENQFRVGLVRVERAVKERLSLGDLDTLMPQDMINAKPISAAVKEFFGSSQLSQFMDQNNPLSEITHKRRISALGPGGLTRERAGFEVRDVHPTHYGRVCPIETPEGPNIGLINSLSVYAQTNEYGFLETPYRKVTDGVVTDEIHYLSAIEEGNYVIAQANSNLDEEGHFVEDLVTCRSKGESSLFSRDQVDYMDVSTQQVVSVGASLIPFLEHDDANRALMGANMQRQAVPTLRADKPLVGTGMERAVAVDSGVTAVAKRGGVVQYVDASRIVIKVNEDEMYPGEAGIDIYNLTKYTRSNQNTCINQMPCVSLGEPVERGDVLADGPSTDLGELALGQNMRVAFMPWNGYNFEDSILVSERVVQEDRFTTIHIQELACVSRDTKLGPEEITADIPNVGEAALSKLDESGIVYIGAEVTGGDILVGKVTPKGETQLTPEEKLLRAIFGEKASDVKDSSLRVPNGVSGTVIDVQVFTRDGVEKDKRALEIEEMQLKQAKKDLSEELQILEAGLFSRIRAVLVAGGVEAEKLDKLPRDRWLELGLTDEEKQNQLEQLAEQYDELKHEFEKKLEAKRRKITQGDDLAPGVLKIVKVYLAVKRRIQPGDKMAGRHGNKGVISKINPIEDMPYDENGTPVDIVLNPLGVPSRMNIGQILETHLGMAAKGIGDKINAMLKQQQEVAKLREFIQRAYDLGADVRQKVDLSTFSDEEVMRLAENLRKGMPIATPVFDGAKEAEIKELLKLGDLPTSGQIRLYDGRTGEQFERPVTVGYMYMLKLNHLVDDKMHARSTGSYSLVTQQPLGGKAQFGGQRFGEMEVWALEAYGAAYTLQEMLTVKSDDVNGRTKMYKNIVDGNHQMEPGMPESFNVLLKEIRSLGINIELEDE
T1 sequence (P0A8T7 whole entry): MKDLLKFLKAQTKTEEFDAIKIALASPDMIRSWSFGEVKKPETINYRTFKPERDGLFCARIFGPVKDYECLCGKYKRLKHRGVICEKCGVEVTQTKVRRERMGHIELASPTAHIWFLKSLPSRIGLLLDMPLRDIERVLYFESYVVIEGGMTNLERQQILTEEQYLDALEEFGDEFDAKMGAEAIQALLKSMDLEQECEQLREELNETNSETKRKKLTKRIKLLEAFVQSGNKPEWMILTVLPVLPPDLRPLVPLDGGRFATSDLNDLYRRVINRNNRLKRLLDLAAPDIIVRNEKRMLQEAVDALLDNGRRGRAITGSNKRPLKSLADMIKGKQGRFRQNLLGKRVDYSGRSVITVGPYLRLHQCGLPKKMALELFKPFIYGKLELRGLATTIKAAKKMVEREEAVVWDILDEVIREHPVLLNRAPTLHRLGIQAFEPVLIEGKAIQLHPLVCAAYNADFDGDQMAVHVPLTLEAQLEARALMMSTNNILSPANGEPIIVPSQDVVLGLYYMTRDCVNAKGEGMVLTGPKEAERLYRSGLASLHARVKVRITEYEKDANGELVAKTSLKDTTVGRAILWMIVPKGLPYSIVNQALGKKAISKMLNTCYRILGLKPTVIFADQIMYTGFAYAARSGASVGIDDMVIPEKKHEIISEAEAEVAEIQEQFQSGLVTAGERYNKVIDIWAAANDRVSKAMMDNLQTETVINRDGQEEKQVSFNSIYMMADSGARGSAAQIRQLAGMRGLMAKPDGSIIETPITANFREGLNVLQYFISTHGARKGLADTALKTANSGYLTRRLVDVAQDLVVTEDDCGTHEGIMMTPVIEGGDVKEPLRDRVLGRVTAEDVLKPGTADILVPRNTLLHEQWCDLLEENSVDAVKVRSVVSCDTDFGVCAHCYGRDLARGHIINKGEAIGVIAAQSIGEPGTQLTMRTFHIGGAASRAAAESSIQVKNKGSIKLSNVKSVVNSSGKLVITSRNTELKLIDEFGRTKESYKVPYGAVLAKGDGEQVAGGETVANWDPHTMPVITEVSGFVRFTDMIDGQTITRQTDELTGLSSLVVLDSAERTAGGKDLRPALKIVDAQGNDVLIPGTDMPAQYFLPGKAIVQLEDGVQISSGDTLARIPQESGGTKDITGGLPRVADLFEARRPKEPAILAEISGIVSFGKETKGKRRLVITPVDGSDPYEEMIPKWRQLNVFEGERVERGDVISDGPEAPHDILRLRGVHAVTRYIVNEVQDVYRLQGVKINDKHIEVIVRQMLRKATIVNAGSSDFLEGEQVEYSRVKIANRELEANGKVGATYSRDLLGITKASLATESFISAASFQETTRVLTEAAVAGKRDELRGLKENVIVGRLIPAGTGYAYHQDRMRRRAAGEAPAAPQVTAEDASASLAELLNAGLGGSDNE
T1 sequence (P0A7Z4 whole entry): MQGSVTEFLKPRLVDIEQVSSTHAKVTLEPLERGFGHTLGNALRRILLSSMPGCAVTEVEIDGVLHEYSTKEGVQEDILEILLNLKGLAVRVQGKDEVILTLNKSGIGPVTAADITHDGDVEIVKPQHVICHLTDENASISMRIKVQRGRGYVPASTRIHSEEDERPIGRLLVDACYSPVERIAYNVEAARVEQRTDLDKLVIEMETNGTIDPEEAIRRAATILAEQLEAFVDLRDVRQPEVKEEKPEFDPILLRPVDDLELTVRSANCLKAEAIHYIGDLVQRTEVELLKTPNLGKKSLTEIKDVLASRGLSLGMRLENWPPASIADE
T1 sequence (P0A800 whole entry): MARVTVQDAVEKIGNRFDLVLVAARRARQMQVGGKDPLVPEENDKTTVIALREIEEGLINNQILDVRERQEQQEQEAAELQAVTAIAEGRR

For the compound `FC(F)(F)c1cc(-c2cn[nH]c2-c2cccc(Cl)c2)ccc1Cl` [Example 9], the IC50 (usually the concentration that inhibits the measured activity by half) in test [1] (setting [2]) is under 500 µM. The MIC in the test with E.c(tolC), with S. au (Table 1) and against B. su (Table 1) was under 500 µM in each case.

`O=C(NCCNc1cc(-c2c[nH]nc2-c2ccc(F)cc2)cc(C(F)(F)F)c1)Nc1ccc(Cl)c(C(F)(F)F)c1` [Example 29] returned an IC50 in test [1] (setting [2]) of under 500 µM. Further, the MIC – broadly, the smallest concentration in the dilution series that meets the test's criterion for growth inhibition – was over 500 µM in the test with E.c(tolC), under 500 µM against S. au (Table 1) and under 500 µM with B. su (Table 1).

With `Fc1cccc(-c2c[nH]nc2-c2ccsc2)c1` [Example 38], the IC50 in test [1] (Table 3, heteroaryl compounds) is under 500 µM. Also, the MIC with E.c(tolC), in the test with S. au (Table 3) and with B. su (Table 3) was under 500 µM in each case.

The compound `FC(F)(F)c1cc(-c2cn[nH]c2-c2ccccc2)ccc1Cl` [Example 10] registered an IC50 in test [1] (setting [2]) of under 500 µM. In addition, the MIC with E.c(tolC), in the test on S. au (Table 1) and with B. su (Table 1) was under 500 µM in each case.

As for `NC1CCN(c2ccc(-c3c[nH]nc3-c3ccc(F)cc3)cc2C(F)(F)F)C1` (stereo not shown) [Example 24], in test [1] (setting [2]), the IC50 is under 500 µM. The MIC in the test with E.c(tolC), in the test with S. au (Table 1) and against B. su (Table 1) was under 500 µM throughout.

Compound `O=[N+]([O-])c1cccc(-c2c[nH]nc2-c2ccc(N3CCCCC3)c(C(F)(F)F)c2)c1` [Example 33] yielded an IC50 in test [1] (setting [2]) of under 500 µM. Also, the MIC was over 500 µM with E.c(tolC), under 500 µM in the test on S. au (Table 1) and under 500 µM with B. su (Table 1).

On to `O=c1[nH][nH]c(-c2ccccc2)c1-c1cccc(C(F)(F)F)c1` [Example 16, 5-phenyl-4-(3-trifluoromethylphenyl)-1,2-dihydropyrazol-3-one], for which, in test [1] (Table 2, compounds of Formula 13), the IC50 is over 500 µM. Besides, the MIC with E.c(tolC), against S. au (Table 2) and with B. su (Table 2) was under 500 µM in each case.

As for `O=[N+]([O-])c1cccc(-c2c[nH]nc2-c2ccc(F)c(C(F)(F)F)c2)c1` [Example 32], the IC50 in test [1] (setting [2]) was under 500 µM. The MIC is over 500 µM with E.c(tolC), under 500 µM against S. au (Table 1) and under 500 µM in the test on B. su (Table 1).

Regarding `Cc1ccc(-c2[nH]ncc2-c2ccccc2)cc1` [Example 5], the IC50 in test [1] (setting [2]) is over 500 µM. In addition, the MIC with E.c(tolC), in the test on S. au (Table 1) and in the test with B. su (Table 1) was under 500 µM in each case.

For the compound `Fc1ccc(-c2n[nH]cc2-c2ccc(NCCN3CCNCC3)c(C(F)(F)F)c2)cc1` [Example 20], the IC50 in test [1] (setting [2]) was under 500 µM. Further, the MIC in the test with E.c(tolC), against S. au (Table 1) and with B. su (Table 1) was under 500 µM each time.

Regarding `Clc1ccc(-c2[nH]ncc2-c2ccccc2)cc1` [Example 3], the IC50 in test [1] (setting [2]) is over 500 µM. Further, the minimal inhibitory concentration (MIC) in the test on E.c(tolC), in the test with S. au (Table 1) and in the test with B. su (Table 1) was over 500 µM throughout.

In turn, `O=C(NCCNc1cc(-c2c[nH]nc2-c2ccc(F)cc2)cc(C(F)(F)F)c1)c1ccccc1` [Example 28] gave an IC50 in test [1] (setting [2]) of over 500 µM. Besides, the MIC with E.c(tolC), against S. au (Table 1) and in the test on B. su (Table 1) was under 500 µM each time.

In test [1] (setting [2]), `Clc1ccc(-c2[nH]ncc2-c2ccccc2)cc1Cl` [Example 4] came in with an IC50 of over 500 µM. Moreover, the MIC in the test with E.c(tolC), in the test on S. au (Table 1) and against B. su (Table 1) was under 500 µM each time.

Compound `Fc1ccc(-c2n[nH]cc2-c2cc(F)cc(C(F)(F)F)c2)cc1` [Example 26] displayed an IC50 in test [1] (setting [2]) of under 500 µM. The minimum inhibitory concentration (MIC) with E.c(tolC), with S. au (Table 1) and against B. su (Table 1) was under 500 µM in each case.

In test [1] (setting [2]), `Fc1ccc(-c2cn[nH]c2-c2cccc(Cl)c2)cc1C(F)(F)F` [Example 11] gave an IC50 of over 500 µM. In addition, the minimal inhibitory concentration (MIC) in the test with E.c(tolC), in the test on S. au (Table 1) and with B. su (Table 1) was under 500 µM throughout.

In turn, `O=C(NCCCNc1cc(-c2c[nH]nc2-c2ccc(F)cc2)cc(C(F)(F)F)c1)Nc1ccc(Cl)c(C(F)(F)F)c1` [Example 31] came in with an IC50 in test [1] (setting [2]) of under 500 µM. Also, the MIC with E.c(tolC) is over 500 µM; in the test on S. au (Table 1) it was under 500 µM; in the test with B. su (Table 1) it was under 500 µM.
